# From PubChem BioAssay (NCI)
# “And” between values parts separate entries of the source, which are not always exact repeats. Equal values may be shown once.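 Grown in 96-well plates, cells were treated for 48 hours with each compound at five concentrations. Insufficient inhibition: endpoint recorded as highest concentration tested. GI50: concentration for 50% inhibition of growth. TGI: concentration producing complete growth inhibition.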
# Key:
# Assay in all cases: growth of human tumour cells (NCI), 48 h
# [1] = tested on: SNB-75 CNS
# [2] = tested on: SF-268 CNS
# [3] = tested on: HT29 colon
# [4] = tested on: ACHN renal
# [5] = tested on: SF-295 CNS
# [6] = tested on: SNB-19 CNS
# [7] = tested on: MOLT-4 leukemia
# [8] = tested on: SW-620 colon
# [9] = tested on: LOX IMVI melanoma
# [10] = tested on: EKVX NSCLC
SMILES,GI50 [1],TGI [1],GI50 [2],TGI [2],GI50 [3],TGI [3],GI50 [4],TGI [4],GI50 [5],TGI [5],GI50 [6],TGI [6],TGI [7],GI50 [8],TGI [8],GI50 [9],TGI [9],GI50 [10],TGI [10],GI50 [7]
Cc1cc(C2CCCCC2)n(O)c(=O)c1,1960 nM,> 100 µM and 58.1 µM,1.27 µM,> 100 µM,5.27 µM,> 100 µM,1060 nM,> 100 µM,810 nM,86.8 µM and > 100 µM,2.37 µM,> 100 µM,> 100 µM,3.38 µM,> 100 µM,757 nM,80.3 µM and 80.1 µM,2400 nM,> 100 µM,
CCOC(=O)[C@H]1Nc2ccc(C)cc2C2c3ccccc3CC21 (some centres not stated),,> 100 µM,,> 100 µM,,> 100 µM,,> 100 µM,,> 100 µM,,> 100 µM,> 100 µM,,> 100 µM,,> 100 µM,,> 100 µM,
O=C(NC1CCCCCC1)C1C(=O)N(C2CCCCCC2)C(=O)/C1=N\O (configuration not stated),,91.9 µM,,> 100 µM,,94.2 µM,,> 100 µM,,> 100 µM,,> 100 µM,57.3 µM,,> 100 µM,,> 100 µM,,> 100 µM,
CC#CC(=O)Nc1ccccc1CC(c1c[nH]c2ccccc12)c1c[nH]c2ccccc12,,38.8 µM,,59 µM,,42.5 µM,,,,58.3 µM,,45.6 µM,44.6 µM,,36.2 µM,,33.8 µM,,54.7 µM,
COc1cccc(NCc2nnc(Nc3ccc(Cl)cc3)c3ccccc23)c1,293 nM,5.27 µM,2.05 µM,10.5 µM,0.34 µM,3.62 µM,1560 nM,24.4 µM,1940 nM,8.25 µM,3.5 µM,13 µM,7.57 µM,2.98 µM,8.13 µM,1110 nM,4.84 µM,588 nM,6.4 µM,1.1 µM
Nc1nccc(-c2c(-c3ccc(F)cc3)ncn2CCCN2CCOCC2)n1,> 25000 nM,> 25 µM,> 25 µM,> 25 µM,> 25 µM,> 25 µM,19400 nM,> 25 µM,> 25000 nM,> 25 µM,> 25 µM,> 25 µM,> 25 µM,> 25 µM,> 25 µM,> 25000 nM,> 25 µM,> 25000 nM,> 25 µM,> 25 µM
COc1ccc(/C(=N/Nc2ccc([N+](=O)[O-])cc2)Sc2cc(Cl)c(C)cc2S(N)(=O)=O)cc1,2680 nM,6.39 µM,6.66 µM,19.9 µM,2.91 µM,6.89 µM,6340 nM,17.5 µM,3310 nM,8.78 µM,7.06 µM,20.3 µM,16.5 µM,5.86 µM,18.2 µM,3680 nM,10.4 µM,3340 nM,10.9 µM,5.02 µM
CC(=O)SCCC1c2[nH]c3ccccc3c2CCN1O (configuration not stated),,86.4 µM,,> 100 µM,,> 100 µM,,> 100 µM,,> 100 µM,,> 100 µM,> 100 µM,,> 100 µM,,> 100 µM,,> 100 µM,
CCCN(CCCCC(NC(C)=O)C(=O)NCc1ccccc1)C(=O)N(CCCl)N=O (configuration not stated),,90.8 µM,,> 100 µM,,> 100 µM,,> 100 µM,,> 100 µM,,> 100 µM,> 100 µM,,> 100 µM,,> 100 µM,,> 100 µM,
COc1cc([N+](=O)[O-])ccc1NC(=O)C(F)(F)F,,> 100 µM,,> 100 µM,,> 100 µM,,> 100 µM,,> 100 µM,,> 100 µM,> 100 µM,,> 100 µM,,> 100 µM,,> 100 µM,
N#CCCN(c1ccc(/C=C2\N=C(c3ccc(Cl)cc3)OC2=O)cc1)S(=O)(=O)c1ccccc1,,> 100 µM,,> 100 µM,,> 100 µM,,> 100 µM,,> 100 µM,,> 100 µM,> 100 µM,,> 100 µM,,> 100 µM,,> 100 µM,
CCCCCCCCCCCCCCCCOP(=O)(O)Oc1ccc(/C=C\c2ccc(OP(=O)(O)OCCCCCCCCCCCCCCCC)cc2)cc1,,80.8 µM,,> 100 µM,,> 100 µM,,> 100 µM,,> 100 µM,,> 100 µM,> 100 µM,,> 100 µM,,> 100 µM,,> 100 µM,
COc1ccc(-c2cc3c(nn2)-c2ccccc2C3=O)cc1,> 100000 nM,> 100 µM,> 100 µM,> 100 µM,> 100 µM,> 100 µM,> 100000 nM,> 100 µM,> 100000 nM,> 100 µM,> 100 µM,> 100 µM,> 100 µM,72.7 µM,> 100 µM,> 100000 nM,> 100 µM,,> 10 µM,32.8 µM
COC(=O)C(=O)C(C(=O)C=C(C)C)C(=O)C(=O)Nc1ccc(Cl)cc1C (configuration not stated),,> 100 µM,,> 100 µM,,> 100 µM,,> 100 µM,,> 100 µM,,> 100 µM,> 100 µM,,,,> 100 µM,,> 100 µM,
CCCCCCCCCCC(O)C1CCC(C2CCC(C(O)CCCCC(O)CCCCCC(O)CC3=CC(C)OC3=O)O2)O1 (configuration not stated),> 25000 nM,> 25 µM,> 25 µM,> 25 µM,,,1590 nM,7.79 µM and > 25 µM,2000 nM,> 25 µM,1.41 µM,> 25 µM,> 25 µM,3.93 µM,> 25 µM,218 nM,2.6 µM and > 25 µM,> 25000 nM,> 25 µM,2.57 µM
CSc1nc(NC2OC(COC(C)=O)C(OC(C)=O)C(OC(C)=O)C2OC(C)=O)c2c(OC(C)=O)c(C)c(=O)oc2n1 (configuration not stated),,> 100 µM,,,,> 100 µM,,> 100 µM,,> 100 µM,,> 100 µM,> 100 µM,,> 100 µM,,> 100 µM,,> 100 µM,
O=C(CC(=O)N1N=C(c2ccccc2)C(N=Nc2ccc(Cl)cc2)C1=O)Nc1ccccc1Cl (configuration not stated),,41.3 µM,,78 µM,,> 100 µM,,48.8 µM,,,,61 µM,> 100 µM,,> 100 µM,,> 100 µM,,> 100 µM,
